Data set [1] deals with T1, CRTH2 (DP2) (Homo sapiens, UniProt Q9Y5Y4).
T1 construct: host or cells: CHO cells
T1 sequence (Q9Y5Y4 1-395): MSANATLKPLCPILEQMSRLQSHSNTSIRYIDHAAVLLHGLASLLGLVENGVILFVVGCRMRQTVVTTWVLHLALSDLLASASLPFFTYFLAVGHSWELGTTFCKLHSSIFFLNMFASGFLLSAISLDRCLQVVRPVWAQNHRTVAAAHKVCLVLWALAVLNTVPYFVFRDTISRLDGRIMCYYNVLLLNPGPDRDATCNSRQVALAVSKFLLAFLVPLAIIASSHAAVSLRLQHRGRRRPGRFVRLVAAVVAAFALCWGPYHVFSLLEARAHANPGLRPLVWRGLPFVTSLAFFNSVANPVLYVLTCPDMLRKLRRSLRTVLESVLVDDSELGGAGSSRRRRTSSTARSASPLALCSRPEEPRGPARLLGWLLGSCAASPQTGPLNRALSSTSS
As to the kind of experiment: Radioligand binding Scintillation Proximity Assay ([3H]PGD2, hCRTH2-CHO cell membranes). The conditions noted are these: 1.5 nM [3H]PGD2, hCRTH2-CHO cell membranes, SPA. An outline of the steps:
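Membranes from CHO cells stably expressing human CRTH2, made by nitrogen cavitation and differential centrifugation. Compounds competed with [3H]PGD2 at 1% DMSO for 90 min with agitation at room temperature. Non-specific binding taken with 10 μM PGD2.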

The target in data set [2] is T2, CRTH2 (Homo sapiens, UniProt Q9Y5Y4).
T2 construct: expressed in transfected cells; host or cells: CHO cells
T2 sequence (Q9Y5Y4 1-395): T1 sequence (Q9Y5Y4 1-395)
As to the kind of experiment: Cellular Dielectric Spectroscopy in CHO-CRTH2 cells. It counts as cell-based. As to conditions: for EC50: agonist activity without PGD2, read-out: EC50(μM) (CDS, partial agonist); for Emax: agonist activity without PGD2, read-out: EMax (CDS, partial agonist); for IC50: fixed concentration of PGD2 (EC80), read-out: IC50(μM) (CDS, antagonist). The protocol:
Cellular Dielectric Spectroscopy (CDS) is a label-free technology based on the measurement of complex impedance changes (delta Z or dZ). Impedance (Z) is related to the ratio of voltage to current as described by Ohm's law (Z=V/I). In order to measure the changes in impedance that occur in response to receptor stimulation, mammalian cells are seeded onto a custom 96-well microtiter plate that contains electrodes at the bottom of each well Key contributors to the impedance measurements are changes in cell-substrate adherence, changes in cell shape and volume, and changes in cell-cell interactions. These factors individually or collectively affect the flow of current, influencing the magnitude and characteristics of the signal measured. G-protein coupled receptors ligand-induced activity can be measured using this technology and specific G protein coupling can be identified. Activities of reference agonist and antagonist molecules of CRTH2 have been measured using this assay and similar results were obtained compared to different functional assays.
CHO—CRTH2 cells are cultured in HAM's F12 (Lonza, Switzerland) supplemented with 10% foetal calf serum (PAA, Australia) and 400 μg/ml Geneticin. 100000 cells/well are seeded in standard 96 W Microplates (MDS Analytical Technologies) and incubated at 37° C. in 5% CO2 for 24 hours. Cells are washed twice with 135 μl of cell key buffer (Hank's Balanced Salt Solution 1× (HBSS) (Invitrogen) supplemented with 10 mM HEPES pH 7.4 in presence of 1% DMSO). […] Results are expressed as the amplitude between the highest and the lowest signal produced (max-min). Basal and maximum activities are measured, respectively in absence or presence of PGD2 (EC80).

The target in data set [3] is T2, CRTH2. As to the kind of experiment: [35S]GTPγS binding assay on CHO-CRTH2 cell membranes. It is filed as biochemical. As to conditions: for Emax: without addition of PGD2, 100% of Emax being the activity measured by the addition of 1 μM of PGD2. As to the method: Adherent CHO cells expressing hCRTH2 (Euroscreen, Belgium) were cultured in 225 cm^2 cell culture flasks (Corning, USA) in 30 ml of medium. After two rinses of phosphate buffered saline (PBS), cells were harvested in 10 ml of PBS containing 1 mM EDTA, centrifuged at 500×g for 5 min at 4° C. and frozen at −80° C. The pellet was re-suspended in 50 mM Tris-HCl, pH 7.4, 2 mM EDTA, 250 mM Sucrose, containing protease inhibitor cocktail tablets, (Complete EDTA-free, Roche, Germany) and incubated 30 min at 4° C. Cells were disrupted by nitrogen cavitation (Parr Instruments, USA) at 4° C. (800 p.s.i. for 30 min), and centrifuged at 500×g for 10 min at 4° C. Pellet containing nuclei and cellular debris was discarded and supernatant was centrifuged 60 min at 4° C. at 45000×g. Membrane pellet was re-suspended in storage buffer (10 mM HEPES/KOH pH 7.4, 1 mM EDTA, 250 mM sucrose, protease inhibitor cocktail tablets) using Dounce homogenization and frozen in liquid nitrogen, and stored at 80° C.
The [^35S]GTPγS assay measures the increase in guanine nucleotide exchange at G-proteins in cell membranes, resulting from agonist (PGD2) binding to CRTH2. […] Briefly, Compounds of Formula (I) are incubated in 96-well scintillating white polystyrene plates (Perkin Elmer, USA) in a final volume of 200 μl containing 20 mM HEPES/KOH pH 7.4, 3 mM MgCl2, 10 μg/ml Saponin, 5 μM GDP, 75 mM NaCl and 2% of dimethylsulphoxide (DMSO). […] After 60 min incubation at 30° C., reaction is stopped by centrifugation at 700×g, at 4° C. for 10 minutes and supernatant is removed. […] For IC50 determination, increasing concentrations of compounds are incubated in presence of a fixed concentration of PGD2 (EC80). For EC50 measurements, compounds are incubated without addition of PGD2. Basal [^35S]GTPγS activity is determined without addition of any ligands or compounds. 100% [^35S]GTPγS activity is measured by the addition of 1 μM of PGD2.

Molecules are shown by their SMILES.

`CCC(=O)N(Cc1ccc(OC)cc1)c1cc(F)cc(-c2nnn[nH]2)c1` [Example 41, N-[3-fluoro-5-(1H-tetrazol-5-yl)phenyl]-N-(4-methoxybenzyl)propanamide] came in with a melting point of 158 to 160 °C. This compound also displayed an IC50 in data set [1] of 9 nM.
Consider `CC(C)CC(=O)N(Cc1ccc(S(C)(=O)=O)cc1)c1cc(F)cc(-c2nnn[nH]2)c1` [Example 104, N-[3-fluoro-5-(1H-tetrazol-5-yl)phenyl]-3-methyl-N-[4-(methylsulfonyl)benzyl]butanamide], for which, in data set [1], the IC50 is 3.7 nM. In data set [2], the EC50 came out at 0.0011 µM and the Emax was 27%.
Compound `CCC(=O)N(Cc1cccc(-c2ccccc2)c1)c1cccc(-c2nnn[nH]2)c1` [Example 59, N-(biphenyl-3-ylmethyl)-N-[3-(1H-tetrazol-5-yl)phenyl]propanamide] had a melting point of 91 °C. Besides, the IC50 in data set [1] worked out at 230 nM.
For `CCCCC(=O)N(Cc1ccc(OC)cc1)c1cc(F)cc(-c2nnn[nH]2)c1` [Example 38, N-[3-fluoro-5-(1H-tetrazol-5-yl)phenyl]-N-(4-methoxybenzyl)pentanamide], in that order: 122 to 125 °C and 3.6 nM.
In data set [1], `CS(=O)(=O)c1ccc(CN(C(=O)C2CCCC2)c2cc(F)cc(-c3nnn[nH]3)c2)cc1` [Example 105, N-[3-fluoro-5-(1H-tetrazol-5-yl)phenyl]-N-[4-(methylsulfonyl)benzyl]cyclopentanecarboxamide] returned an IC50 of 6.2 nM. In addition, in data set [2], the EC50 stood at 0.0024 µM and the Emax worked out at 22%.
In the case of `CS(=O)(=O)c1ccc(CN(C(=O)c2ccccc2)c2cc(F)cc(-c3nnn[nH]3)c2)cc1` [Example 108, N-[3-fluoro-5-(1H-tetrazol-5-yl)phenyl]-N-[4-(methylsulfonyl)benzyl]benzamide], the half-inhibitory concentration (IC50) turned out to be 2.6 nM in data set [1]; 22.4 nM in data set [3] (in presence of a fixed concentration of PGD2 (EC80), read-out: IC50 ([35S]GTPγS, antagonist)); 0.049 µM in data set [2]. The Emax in data set [3] was -10.1%.
On to `CCCC(=O)N(Cc1ccc(OC(F)(F)F)cc1)c1cc(Cl)cc(-c2nnn[nH]2)c1` [Example 55, N-[3-chloro-5-(1H-tetrazol-5-yl)phenyl]-N-[4-(trifluoromethoxy)benzyl]butanamide], for which the melting point amounted to 179 °C. Besides, in data set [1], the IC50 was determined as 16 nM. Also, the Emax in data set [3] is -13.5%.
`CS(=O)(=O)c1ccc(CN(C(=O)Cc2ccccc2)c2cc(F)cc(-c3nnn[nH]3)c2)cc1` [Example 109, N-[3-fluoro-5-(1H-tetrazol-5-yl)phenyl]-N-[4-(methylsulfonyl)benzyl]-2-phenylacetamide] came in with an IC50 in data set [1] of 1 nM. Further, in data set [2], the 50% effective concentration (EC50) stood at 0.0012 µM and the Emax worked out at 32%.
As to `CCCCC(=O)N(Cc1cccc(OC)c1)c1cc(F)cc(-c2nnn[nH]2)c1` [Example 37, N-[3-fluoro-5-(1H-tetrazol-5-yl)phenyl]-N-(3-methoxybenzyl)pentanamide], the melting point is 118 to 120 °C. The IC50 in data set [1] was determined as 3.6 nM.
Compound `CCCCC(=O)N(Cc1ccc(OC(F)(F)F)c(Cl)c1)c1cc(F)cc(-c2nnn[nH]2)c1` [Example 54, N-[3-chloro-4-(trifluoromethoxy)benzyl]-N-[3-fluoro-5-(1H-tetrazol-5-yl)phenyl]pentanamide] gave a melting point of 137 °C. Also, the IC50 in data set [1] was determined as 15 nM. Moreover, the Emax in data set [3] is -12.6%.
For the compound `CCCCC(=O)N(Cc1cccn1S(=O)(=O)c1ccccc1)c1cc(-c2nnn[nH]2)ccc1F` [Example 4, N-[2-fluoro-5-(1H-tetrazol-5-yl)phenyl]-N-{[1-(phenylsulfonyl)-1H-pyrrol-2-yl]methyl}pentanamide], the IC50 in data set [1] amounted to 51 nM; in data set [2], 0.22 µM.
With `COCCC(=O)N(Cc1ccc(OC(F)(F)F)cc1)c1cc(Cl)cc(-c2nnn[nH]2)c1` [Example 68, N-[3-chloro-5-(1H-tetrazol-5-yl)phenyl]-3-methoxy-N-[4-(trifluoromethoxy)benzyl]propanamide], the melting point was 146 to 151 °C. Besides, the IC50 in data set [1] was 7.4 nM.
The compound `CCC(=O)N(Cc1ccc(S(C)(=O)=O)cc1)c1cc(F)cc(-c2nnn[nH]2)c1` [Example 78, N-[3-fluoro-5-(1H-tetrazol-5-yl)phenyl]-N-[4-(methylsulfonyl)benzyl]propanamide] returned an IC50 in data set [1] of 3.5 nM. Further, in data set [3], the Emax turned out to be 19%. In addition, in data set [2], the concentration for a half-maximal effect (EC50) was determined as 0.0011 µM, the Emax was 42% and the IC50 was 0.014 µM.
The compound `CCCCC(=O)N(Cc1ccc(OC(F)(F)F)cc1)c1cc(Cl)cc(-c2nnn[nH]2)c1` [Example 40, N-[3-chloro-5-(1H-tetrazol-5-yl)phenyl]-N-[4-(trifluoromethoxy)benzyl]pentanamide] had a melting point of 177 to 180 °C. Further, the IC50 in data set [1] was 25 nM. The Emax in data set [3] is -9.9%.

Values taken from patent US20120115869A1, “TETRAZOLE DERIVATIVES” (MERCK SERONO S.A., priority 2009, published 2012).
